# PubChem BioAssay AID330 (DTP/NCI, 2004)
# Values joined by “and” are separate entries in the source; they are usually repeats but may differ in a detail not shown here. Identical values can stand only once. Inconclusive results and toxic doses are left out.
# Test system: P388 leukemia ip, CD2F1 mice, survival T/C
# Assay: NCI In Vivo Anticancer Drug Screen. Data for tumor model P388 Leukemia (intraperitoneal) in CD2F1 (CDF1) mice
# Details: endpoint: median survival time, higher = longer survival
# In short: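 Mice carrying the transplanted tumor received test compound or vehicle. Survival was recorded in each group, and the value is the treated-group measurement divided by that of the vehicle-treated control group.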
# [1] = dose: 100.0 mg/kg/injection, schedule: Q01DX009 (ip), vehicle: saline + alcohol
# [2] = dose: 50.0 mg/kg/injection, schedule: Q01DX005 (ip), vehicle: saline with Tween-80
# [3] = dose: 100.0 mg/kg/injection, schedule: Q01DX005 (ip), vehicle: saline with Tween-80
# [4] = dose: 200.0 mg/kg/injection, schedule: Q01DX005 (ip), vehicle: saline with Tween-80
# [5] = dose: 120.0 mg/kg/injection, schedule: Q01DX005 (ip), vehicle: saline with Tween-80
# [6] = dose: 200.0 mg/kg/injection, schedule: Q01DX001 (ip), vehicle: saline with Tween-80
# [7] = dose: 12.5 mg/kg/injection, schedule: Q01DX009 (ip), vehicle: saline
# [8] = dose: 25.0 mg/kg/injection, schedule: Q01DX009 (ip), vehicle: saline
# [9] = dose: 50.0 mg/kg/injection, schedule: Q01DX009 (ip), vehicle: saline
# [10] = dose: 100.0 mg/kg/injection, schedule: Q01DX009 (ip), vehicle: saline
# [11] = dose: 200.0 mg/kg/injection, schedule: Q01DX009 (ip), vehicle: saline
# [12] = dose: 50.0 mg/kg/injection, schedule: Q01DX005 (ip), vehicle: Klucel (hydroxypropylcellulose) (HPC)
# [13] = dose: 100.0 mg/kg/injection, schedule: Q01DX005 (ip), vehicle: Klucel (hydroxypropylcellulose) (HPC)
# [14] = dose: 50.0 mg/kg/injection, schedule: Q01DX009 (ip), vehicle: saline with Tween-80
# [15] = dose: 100.0 mg/kg/injection, schedule: Q01DX009 (ip), vehicle: saline with Tween-80
# [16] = dose: 200.0 mg/kg/injection, schedule: Q01DX009 (ip), vehicle: saline with Tween-80
# [17] = dose: 50.0 mg/kg/injection, schedule: Q01DX009 (ip), vehicle: Klucel (hydroxypropylcellulose) (HPC)
# [18] = dose: 100.0 mg/kg/injection, schedule: Q01DX009 (ip), vehicle: Klucel (hydroxypropylcellulose) (HPC)
# [19] = dose: 60.0 mg/kg/injection, schedule: Q01DX005 (ip), vehicle: saline with Tween-80
smiles,measurement,setting,value
CCOC(=O)C(=O)Nc1oc(C)c(C)c1C#N,T/C,"dose: 12.5 mg/kg/injection, schedule: Q01DX009 (ip), vehicle: saline + alcohol",100 % of control and 107 % of control and 118 % of control
same,T/C,"dose: 25.0 mg/kg/injection, schedule: Q01DX009 (ip), vehicle: saline + alcohol",109 % of control and 116 % of control and 124 % of control
same,T/C,"dose: 25.0 mg/kg/injection, schedule: Q04DX003 (ip), vehicle: saline + alcohol",115 % of control
same,T/C,"dose: 50.0 mg/kg/injection, schedule: Q04DX003 (ip), vehicle: saline + alcohol",106 % of control
same,T/C,"dose: 100.0 mg/kg/injection, schedule: Q01DX001 (ip), vehicle: saline + alcohol",95 % of control
same,T/C,[1],110 % of control and 93 % of control
same,T/C,"dose: 100.0 mg/kg/injection, schedule: Q04DX003 (ip), vehicle: saline + alcohol",112 % of control
same,T/C,"dose: 200.0 mg/kg/injection, schedule: Q01DX001 (ip), vehicle: saline + alcohol",96 % of control
CCOC(=O)CCN(C(C)=O)C(CC(C)C)C(=O)OCC (stereo not drawn),T/C,[2],98 % of control
same,T/C,[3],105 % of control
same,T/C,[4],105 % of control
CCCCN=NN(C)CCCC,T/C,"dose: 12.5 mg/kg/injection, schedule: Q01DX005 (ip), vehicle: saline with Tween-80",107 % of control
same,T/C,"dose: 25.0 mg/kg/injection, schedule: Q01DX005 (ip), vehicle: saline with Tween-80",117 % of control
COc1cc2cc(c1Cl)N(C)C(=O)CC(OC(=O)CC(C)C)C1(C)OC1C(C)C1CC(O)(NC(=O)O1)C(OC)/C=C/C=C(C)C2 (stereo not drawn),T/C,"dose: 6.2 micrograms/kg/injection, schedule: Q01DX009 (ip), vehicle: saline + alcohol",113 % of control
same,T/C,"dose: 6.25 micrograms/kg/injection, schedule: Q01DX009 (ip), vehicle: saline + alcohol",111 % of control and 120 % of control
same,T/C,"dose: 100.0 micrograms/kg/injection, schedule: Q01DX009 (ip), vehicle: saline + alcohol",106 % of control
CCN(CC)c1ccc(C(C#N)(c2ccc(N(CC)Cc3cccc(S(=O)(=O)O)c3)cc2)c2ccc(N(CC)Cc3cccc(S(=O)(=O)O)c3)cc2)cc1,T/C,"dose: 72.0 mg/kg/injection, schedule: Q01DX001 (ip), vehicle: saline with Tween-80",98 % of control and 102 % of control
same,T/C,"dose: 72.0 mg/kg/injection, schedule: Q01DX005 (ip), vehicle: saline with Tween-80",99 % of control
same,T/C,"dose: 120.0 mg/kg/injection, schedule: Q01DX001 (ip), vehicle: saline with Tween-80",104 % of control and 92 % of control
same,T/C,[5],92 % of control
same,T/C,[6],90 % of control and 96 % of control
same,T/C,[4],98 % of control
Cc1cc(-c2ccc(N=Nc3ccc4c(S(=O)(=O)O)cc(S(=O)(=O)O)c(N)c4c3O)c(C)c2)ccc1N=Nc1ccc2c(S(=O)(=O)O)cc(S(=O)(=O)O)c(N)c2c1O,T/C,[7],116 % of control
same,T/C,[8],107 % of control
CC(C)(CO)NC(=O)c1ccc(C(C)(C)C)cc1Br,T/C,"dose: 100.0 mg/kg/injection, schedule: Q01DX001 (ip), vehicle: saline with Tween-80",99 % of control
same,T/C,[6],99 % of control
same,T/C,"dose: 400.0 mg/kg/injection, schedule: Q01DX001 (ip), vehicle: saline with Tween-80",100 % of control
CCOC(=O)C(C)(NC(=O)CN)C1CC1 (stereo not drawn),T/C,[9],90 % of control
same,T/C,[10],94 % of control
same,T/C,[11],97 % of control
NC(=O)SCC(=O)Nc1ccc2ncccc2c1,T/C,"dose: 100.0 mg/kg/injection, schedule: Q01DX009 (ip), vehicle: saline sonified",100 % of control
same,T/C,"dose: 100.0 mg/kg/injection, schedule: Q04DX003 (ip), vehicle: saline sonified",100 % of control
same,T/C,"dose: 200.0 mg/kg/injection, schedule: Q01DX009 (ip), vehicle: saline sonified",113 % of control
same,T/C,"dose: 200.0 mg/kg/injection, schedule: Q04DX003 (ip), vehicle: saline sonified",100 % of control
same,T/C,"dose: 400.0 mg/kg/injection, schedule: Q01DX009 (ip), vehicle: saline sonified",90 % of control
same,T/C,"dose: 400.0 mg/kg/injection, schedule: Q04DX003 (ip), vehicle: saline sonified",104 % of control
COc1ccc(Cc2c3cc(OC)c(OC)cc3cc[n+]2CC(=O)c2ccc(Cl)cc2)cc1OC,T/C,[12],105 % of control
same,T/C,[13],111 % of control
CCCCCCCCCCCCCCCCCc1n[nH]c(=S)o1,T/C,[14],99 % of control
same,T/C,[15],99 % of control
same,T/C,[16],98 % of control
COc1cc(/C=N/NC(=O)CN(C)C)cc(OC)c1N(CCCl)CCCl,T/C,"dose: 6.25 mg/kg/injection, schedule: Q01DX009 (ip), vehicle: Klucel (hydroxypropylcellulose) (HPC)",116 % of control
same,T/C,"dose: 25.0 mg/kg/injection, schedule: Q01DX009 (ip), vehicle: Klucel (hydroxypropylcellulose) (HPC)",152 % of control
same,T/C,[17],186 % of control and 189 % of control
same,T/C,[18],93 % of control
CC1CC2OC(=O)CC2C(O)C2(C)C(OC(C)(C)C)CCC12 (stereo not drawn),T/C,[12],100 % of control
same,T/C,[13],90 % of control
Nc1c(Br)cc(Br)c2[nH]c(=O)c3ccccc3c12,T/C,[19],116 % of control
same,T/C,[5],106 % of control
COc1ccc(C(CCO)c2cc3c(cc2OC)OCO3)cc1 (stereo not drawn),T/C,"dose: 50.0 mg/kg/injection, schedule: Q01DX005 (ip), vehicle: distilled water + Tween-80",101 % of control
same,T/C,"dose: 100.0 mg/kg/injection, schedule: Q01DX005 (ip), vehicle: distilled water + Tween-80",101 % of control
same,T/C,"dose: 200.0 mg/kg/injection, schedule: Q01DX005 (ip), vehicle: distilled water + Tween-80",98 % of control
Cc1ccc(S(=O)(=O)N(C)c2ccc(Cl)cc2C2=NCCc3ccccc32)cc1,T/C,[17],100 % of control
same,T/C,[18],101 % of control
same,T/C,"dose: 200.0 mg/kg/injection, schedule: Q01DX009 (ip), vehicle: Klucel (hydroxypropylcellulose) (HPC)",101 % of control
CCN(C/C=C/CN(CC)C(=S)Nc1ccccc1)C(=S)Nc1ccccc1,T/C,[9],106 % of control
same,T/C,[10],108 % of control
same,T/C,[11],106 % of control
CCCC[N+]1([O-])CCOCC1,T/C,[9],104 % of control
same,T/C,[10],100 % of control
same,T/C,[11],107 % of control
O=C1C2=C(Nc3cc([N+](=O)[O-])ccc3N2)OC1c1ccccn1 (stereo not drawn),T/C,"dose: 30.0 mg/kg/injection, schedule: Q01DX005 (ip), vehicle: Klucel (hydroxypropylcellulose) (HPC)",119 % of control
same,T/C,"dose: 60.0 mg/kg/injection, schedule: Q01DX005 (ip), vehicle: Klucel (hydroxypropylcellulose) (HPC)",122 % of control
same,T/C,"dose: 120.0 mg/kg/injection, schedule: Q01DX005 (ip), vehicle: Klucel (hydroxypropylcellulose) (HPC)",121 % of control
C[C@@H](O)c1nc(C(N)=O)cs1,T/C,[19],104 % of control
same,T/C,[5],109 % of control
same,T/C,"dose: 240.0 mg/kg/injection, schedule: Q01DX005 (ip), vehicle: saline with Tween-80",106 % of control
O=C1CS/C(=N\C(=O)Nc2ccc(Cl)c(Cl)c2)N1,T/C,"dose: 6.25 mg/kg/injection, schedule: Q01DX009 (ip), vehicle: saline",91 % of control
same,T/C,[7],100 % of control
same,T/C,[8],94 % of control
same,T/C,"dose: 50.0 mg/kg/injection, schedule: Q01DX009 (ip), vehicle: saline + alcohol",88 % of control
same,T/C,[1],91 % of control
same,T/C,"dose: 200.0 mg/kg/injection, schedule: Q01DX009 (ip), vehicle: saline + alcohol",88 % of control
CCOCC#CC(OCC)OCC,T/C,"dose: 60.0 mg/kg/injection, schedule: Q01DX005 (ip), vehicle: saline",101 % of control
same,T/C,"dose: 120.0 mg/kg/injection, schedule: Q01DX005 (ip), vehicle: saline",99 % of control
same,T/C,"dose: 240.0 mg/kg/injection, schedule: Q01DX005 (ip), vehicle: saline",99 % of control
O=C1/C(=C/N2CCOCC2)CCc2nc(-c3ccccc3)sc21,T/C,[12],109 % of control
same,T/C,[13],100 % of control
same,T/C,"dose: 200.0 mg/kg/injection, schedule: Q01DX005 (ip), vehicle: Klucel (hydroxypropylcellulose) (HPC)",100 % of control
Cc1ccc(S(=O)(=O)N=Nc2c(O)[nH]c3c(Cl)cc(Cl)cc23)cc1,T/C,[2],103 % of control
same,T/C,[3],100 % of control
same,T/C,[4],95 % of control
Cc1c(-c2ccccc2)nc(N)n1C,T/C,"dose: 5.0 mg/kg/injection, schedule: Q04DX002 (ip), vehicle: saline",100 % of control
same,T/C,"dose: 10.0 mg/kg/injection, schedule: Q04DX002 (ip), vehicle: saline",99 % of control
same,T/C,"dose: 20.0 mg/kg/injection, schedule: Q04DX002 (ip), vehicle: saline",96 % of control
CC1(C)CC(NC(=O)c2ccccc2)C(=O)O1 (stereo not drawn),T/C,[14],99 % of control
same,T/C,[15],100 % of control
same,T/C,[16],98 % of control
